Like-named read-outs stand apart in the source and are kept apart here.
What was measured:
HepG2 cells = conditions: cited from earlier work
plasma apoA-I levels = assay: Plasma apoA-I levels after two weeks of PI plus absorption enhancer (western immunoblotting); assay type: in vivo, Sprague Dawley rats; conditions: 60 mg/kg PI combined with the absorption enhancer (dose per Table 1), rats
Protocol: Individual absorption enhancers were also incorporated into the 2 g bolus dose (Table 1). […] All animals were maintained on this regime for two weeks, at which time animals were euthanized and blood samples collected by cardiac puncture. Blood samples were collected into EDTA coated tubes, placed on ice, followed by centrifugation at 1500×g for 15 min at 4° C. to separate plasma. Plasma samples were stored at −20° C. until analysis of apoA-I could be performed. Plasma apoA-I levels were determined by western immunoblotting.

HDL-C cholesterol = conditions: 5.5% by weight of rat chow, approximately 4 g/Kg body weight; cited from earlier work
[1] = Effect of bile acids on absorption and transport of 3H-PI to the liver; assay type: in vivo, Sprague Dawley rats; conditions: 120 mg/kg 3H-PI by gavage with 50 mg/kg bile acid; liver 4 hours post-gavage
Protocol: Pharmacokinetic studies were performed to determine if specific bile acids increase the absorption and transport of phosphatidylinositol (PI) to the liver. Sprague Dawley rats (300-350 g) were fasted overnight, followed by administration of 120 mg/kg ^3H-PI by gavage. 50 mg/kg of the bile acids deoxycholate or glycocholate were also incorporated into the gavage. Animals were euthanized after 4 hours post-gavage at which time liver samples were harvested. PI was extracted from the liver samples using the acidic Bligh and Dyer extraction method (Bligh, E. G.; Dyer, W. J. Can. J. Biochem. vol. 37: 911-917, 1959 and Honeyman, T. W. et al., Biochem J. vol. 212: 489-498, 1983). Radioactivity present in the organic phase was measured to determine the amount of PI that was transported to the liver.

plasma HDL-C and apoA-I = assay: Oral PI in conventional formulations: increase in plasma HDL-C and apoA-I; assay type: in vivo; conditions: oral PI about 5.6 g/day
[2] = two pilot studies, children aged 4-19 years; cited from earlier work

CC(C)c1c(C(=O)Nc2ccccc2)c(-c2ccccc2)c(-c2ccc(F)cc2)n1CC[C@@H](O)C[C@@H](O)CC(=O)O [atorvastatin, reference compound]
inhibition of cholesterol synthesis (HepG2 cells; concentrations between 0.01 to 10 μM): 45-65%

C[C@H](CCC(=O)O)[C@H]1CC[C@H]2[C@@H]3[C@H](O)C[C@@H]4C[C@H](O)CC[C@]4(C)[C@H]3CC[C@]12C [chenodeoxycholate]
increase in plasma apoA-I relative to PI alone (plasma apoA-I levels): 2 fold

C[C@H](CCC(=O)NCC(=O)O)[C@H]1CC[C@H]2[C@@H]3[C@H](O)C[C@@H]4C[C@H](O)CC[C@]4(C)[C@H]3C[C@H](O)[C@]12C [glycocholate]
increase in plasma apoA-I relative to PI alone (plasma apoA-I levels): 6.6 fold

CCCCCCCCCCCC(=O)[O-].[Na+] [sodium laurate]
increase in plasma apoA-I relative to PI alone (plasma apoA-I levels): 3.7 fold

CCCCCCCCCCCCOS(=O)(=O)[O-].[Na+] [sodium lauryl sulfate]
increase in plasma apoA-I relative to PI alone (plasma apoA-I levels): 7.7 fold

Bromelain
increase in plasma apoA-I relative to PI alone (plasma apoA-I levels): 5.4 fold

Phosphatidic acid [Phosphatidic acid (PA)]
increase of HDL-C cholesterol (HDL-C cholesterol): about 2 fold

deoxycholate
increase of transport of PI to the liver [1]: 20%
increase in plasma apoA-I relative to PI alone (plasma apoA-I levels): 2 fold

phosphatidylinositol [PI]
increase in plasma HDL-C (plasma HDL-C and apoA-I): ~20%
increase in plasma apoA-I (plasma HDL-C and apoA-I): ~10%
inhibition of cholesterol synthesis (HepG2 cells; concentration of 11.7 μM): 50%

phosphatidylserine [PS]
children with improved attention, behavior, learning performance and ameliorated negative mood [2]: 15 out of 20
